Data on one compound can be found in patent publication US12599596B2, “Anti-tumor pharmaceutical composition based on immune checkpoint blockade and use thereof” (Shanghai Hui Tian Jin Ze Biotech Co., Ltd., priority 2023, dated 2026).

Assay [1] has as its system MC38 colorectal cancer cells. Nature of the assay: MC38 subcutaneous tumor model in C57BL/6 mice, Embodiment 2. The class given is in vivo. The following applies: for Tumor volume: CBD 100 mg/kg, PAR 10 mg/kg, vitamin E 50 mg/kg, thymosin 2 mg/kg. Here is the method: • 1. MC38 colorectal cancer cells were inoculated into 6-week-old female C57BL/6 mice (1×10^6 cells/mouse) to establish a subcutaneous tumor model. After the tumor volume reached 50 mm^3, the mice were grouped and administered according to the following pharmaceutical combinations: (1) control group (no administration), (2) anti-PD-1 ([…]/time) group, (3) anti-CTLA4 ([…]/time) group, (4) CBD (100 mg/kg) group, (5) CBD (100 mg/kg)+anti-CTLA4 ([…]/time) group, (6) PAR (10 mg/kg) group, (7) PAR (10 mg/kg)+anti-CTLA4 ([…]) group, (8) CBD (100 mg/kg)+PAR (10 mg/kg) group, (9) vitamin E(a-tocopherol) (50 mg/kg)+thymosin (2 mg/kg) group, (10) CBD (100 mg/kg)+vitamin E(α-tocopherol) (50 mg/kg)+thymosin (2 mg/kg) group, (11) PAR (10 mg/kg)+vitamin E(α-tocopherol) (50 mg/kg)+thymosin (2 mg/kg), (12) PAR (10 mg/kg)+CBD (100 mg/kg)+vitamin E(α-tocopherol) (50 mg/kg)+thymosin (2 mg/kg) group, (13) CBD (100 mg/kg)+vitamin E(α-tocopherol) (50 mg/kg)+thymosin (2 mg/kg)+anti-CTLA4 ([…]/time) group, (14) PAR (10 mg/kg)+vitamin E(α-tocopherol) (50 mg/kg)+thymosin (2 mg/kg)+anti-CTLA4 ([…]) group, and (15) CBD (100 mg/kg)+PAR (10 mg/kg)+vitamin E(α-tocopherol) (50 mg/kg)+thymosin (2 mg/kg)+anti-CTLA4 ([…]/time) group. The tumor weight and volume, and body weight of the mice were monitored once every 2 days. The tumor volume was calculated as follows: tumor volume (mm^3)=0.5×(length)x(width)^2. The mice were sacrificed 14 days after drug administration, and the tumors were dissected.
The dissolving mode of the pharmaceutical composition was as follows: the pharmaceutical composition was dissolved in 10% DMSO+corn oil, the mice were gavaged with the pharmaceutical composition at 100 pl/mouse, and the mice in the control group were injected with the same volume of the solvent. • 2. MC38 colorectal cancer cells were inoculated into 6-week-old female nude mice (1×10^6 cells/mouse) to establish a subcutaneous tumor model. After the tumor volume reached 50 mm^3, the mice were grouped and administered according to the following pharmaceutical combinations: (1) control group, (2) CBD (100 mg/kg)+vitamin E(α-tocopherol) (50 mg/kg)+thymosin (2 mg/kg) group, (3) PAR (10 mg/kg)+vitamin E(α-tocopherol) (50 mg/kg)+thymosin (2 mg/kg) group, and (4) PAR (10 mg/kg)+CBD (100 mg/kg)+vitamin E(α-tocopherol) (50 mg/kg)+thymosin (2 mg/kg) group. The tumor weight and volume, and the body weight of the mice were monitored once every 2 days. The tumor volume was calculated as follows: tumor volume (mm^3)=0.5×(length)x(width)^2. The mice were sacrificed 14 days after drug administration, and the tumors were dissected. (II) Experimental Results 1.

The test system of assay [2] is PD-L1 on RKO colon cancer cell membranes. Briefly: PD-L1 on cell membrane by immunofluorescence. In kind it is cell-based. The following applies: 20 μM CBD, different time. How it is done: • (1) Different types of tumor cells (RKO, HCT116 and HT29 colon cancer cells, and A549, H1975 and H460 lung cancer cells) in the logarithmic growth phase were respectively inoculated on a 6-well plate at an inoculum density of 2.5×10^5 cells/well with 2 mL/well and then placed in a cell incubator overnight incubation. The culture mixture was removed, CBD at different concentrations (0 μM, 5 μM, 10 μM, and 20 μM) was added for treatment for 24 h, the supernatant was removed, and the cells were washed with PBS 2 times, digested with pancreatin, centrifuged at 300×g and 4° C. for 5 min, and collected. The cells were washed with precooled PBS 2 times, centrifuged at 300×g and 4° C. for 5 min, and collected. The cells were washed 2 times with precooled PBS, 100 μL of PBS was added to resuspend the cells, an anti-PD-L1-Alexa Fluor 647 antibody was added, the cells were incubated at room temperature for 30 min and centrifuged at 300×g and 4° C. for 5 min, 300 μL of PBS was added to resuspend the cells in a flow tube, and an Alexa Fluor 647 signal was detected from the sample using a flow cytometer (excitation/emission wavelength of 647 nm/666 nm). • (2) The colorectal cancer cells (RKO) in the logarithmic growth phase were inoculated into a 6-well plate at a density of 2.5×10^5 cells/well, with a 2 mL volume of the suspension in each well. […]

The subject of assay [3] is PD-L1 on HT29 colon cancer cell membrane. Briefly: PD-L1 on cell membrane by flow cytometry. The class given is cell-based. The following applies: concentration-dependent 5, 10, 20 μM, 24 h. How it is done: (§1) • (1) Different types of tumor cells (RKO, HCT116 and HT29 colon cancer cells, and A549, H1975 and H460 lung cancer cells) in the logarithmic growth phase were respectively inoculated on a 6-well plate at an inoculum density of 2.5×10^5 cells/well with 2 mL/well and then placed in a cell incubator overnight incubation. The culture mixture was removed, CBD at different concentrations (0 μM, 5 μM, 10 μM, and 20 μM) was added for treatment for 24 h, the supernatant was removed, and the cells were washed with PBS 2 times, digested with pancreatin, centrifuged at 300×g and 4° C. for 5 min, and collected. The cells were washed with precooled PBS 2 times, centrifuged at 300×g and 4° C. for 5 min, and collected. The cells were washed 2 times with precooled PBS, 100 μL of PBS was added to resuspend the cells, an anti-PD-L1-Alexa Fluor 647 antibody was added, the cells were incubated at room temperature for 30 min and centrifuged at 300×g and 4° C. for 5 min, 300 μL of PBS was added to resuspend the cells in a flow tube, and an Alexa Fluor 647 signal was detected from the sample using a flow cytometer (excitation/emission wavelength of 647 nm/666 nm). • (2) The colorectal cancer cells (RKO) in the logarithmic growth phase were inoculated into a 6-well plate at a density of 2.5×10^5 cells/well, with a 2 mL volume of the suspension in each well. The plate was placed into a cell incubator for incubation overnight, the culture mixture was removed, 20 μM CBD was added for 12 h, the supernatant was removed, PBS was used for washing 2 times, paraformaldehyde was added for fixing for 15 min, 5% BSA was added for fixing for 1 h, PBST was used for washing 2 times, a PD-L1 antibody was added overnight incubation, a red fluorescent antibody was added for incubation at room temperature for 1 h, DAPI was added for staining for 10 min, and finally, a laser scanning confocal microscope was used for photographing and analysis. 4. Research of CBD on Enhancing In Vitro Killing of Tumor Cells by T Cells

The subject of assay [4] is PD-L1 on HCT116 colon cancer cell membrane. Briefly: PD-L1 on cell membrane by flow cytometry. The class given is cell-based. The following applies: concentration-dependent 5, 10, 20 μM, 24 h. How it is done: as §1
Assay [5] deals with PD-L1 on H1975 lung cancer cell membrane. Briefly: PD-L1 on cell membrane by flow cytometry. The class given is cell-based. The following applies: concentration-dependent 5, 10, 20 μM, 24 h. How it is done:
as §1

The test system of assay [6] is PD-L1 on RKO colon cancer cell membrane. Briefly: PD-L1 on cell membrane by flow cytometry. In kind it is cell-based. The following applies: concentration-dependent 5, 10, 20 μM, 24 h. Here is the method: as §1
The subject of assay [7] is PD-L1 on A549 lung cancer cell membrane. Nature of the assay: PD-L1 on cell membrane by flow cytometry. The following applies: concentration-dependent 5, 10, 20 μM, 24 h. The class given is cell-based. Here is the method:
as §1

For assay [8], the system named is PD-L1 on H460 lung cancer cell membrane. Nature of the assay: PD-L1 on cell membrane by flow cytometry. The class given is cell-based. The following applies: concentration-dependent 5, 10, 20 μM, 24 h. Here is the method:
as §1

For the compound `C=C(C)[C@@H]1CCC(C)=C[C@H]1c1c(O)cc(CCCCC)cc1O` [CBD, cannabidiol], the Tumor volume in assay [1] (Day 0) is 0 mm^3; in assay [1] (Day 2), 54.99 mm^3; in assay [1] (Day 4), 70.96 mm^3; in assay [1] (Day 6) it was 87.63 mm^3; in assay [1] (Day 8) it was 178.79 mm^3; in assay [1] (Day 10), 279.84 mm^3. The Tumor volume in assay [1] (Day 12) is 399.70 mm^3; in assay [1] (Day 14), 493.09 mm^3; in assay [1] (Day 16), 600.09 mm^3. Further, the “therapeutic / tumor inhibition effect in words” value in assay [1] (normal mice, Embodiment 2, comparison between groups) is recorded as “equivalent therapeutic effects”. In assay [2], the “expression of PD-L1 on cell membranes (immunofluorescence)” value is on record as “time-dependently decreased the expression of PD-L1”. In addition, the “expression of PD-L1 on the cell membrane (flow assay)” value in assay [3], in assay [4], in assay [5], in assay [6], in assay [7] and in assay [8] was “decreased the expression of PD-L1” in each case.
